Laboratory results taken from ChEMBL document CHEMBL1201862, “PubChem BioAssay data set” (2004).
Calls of active or inactive are those of the source.

Key:
[1] = biological target: T1, Replicative DNA helicase DnaB (Mycobacterium tuberculosis, UniProt P9WMR3); assay: DnaB intein splicing inhibitors, dose response, biochemical, cell-free fluorescence (AID 449749); type: functional
T1 sequence (P9WMR3 whole entry): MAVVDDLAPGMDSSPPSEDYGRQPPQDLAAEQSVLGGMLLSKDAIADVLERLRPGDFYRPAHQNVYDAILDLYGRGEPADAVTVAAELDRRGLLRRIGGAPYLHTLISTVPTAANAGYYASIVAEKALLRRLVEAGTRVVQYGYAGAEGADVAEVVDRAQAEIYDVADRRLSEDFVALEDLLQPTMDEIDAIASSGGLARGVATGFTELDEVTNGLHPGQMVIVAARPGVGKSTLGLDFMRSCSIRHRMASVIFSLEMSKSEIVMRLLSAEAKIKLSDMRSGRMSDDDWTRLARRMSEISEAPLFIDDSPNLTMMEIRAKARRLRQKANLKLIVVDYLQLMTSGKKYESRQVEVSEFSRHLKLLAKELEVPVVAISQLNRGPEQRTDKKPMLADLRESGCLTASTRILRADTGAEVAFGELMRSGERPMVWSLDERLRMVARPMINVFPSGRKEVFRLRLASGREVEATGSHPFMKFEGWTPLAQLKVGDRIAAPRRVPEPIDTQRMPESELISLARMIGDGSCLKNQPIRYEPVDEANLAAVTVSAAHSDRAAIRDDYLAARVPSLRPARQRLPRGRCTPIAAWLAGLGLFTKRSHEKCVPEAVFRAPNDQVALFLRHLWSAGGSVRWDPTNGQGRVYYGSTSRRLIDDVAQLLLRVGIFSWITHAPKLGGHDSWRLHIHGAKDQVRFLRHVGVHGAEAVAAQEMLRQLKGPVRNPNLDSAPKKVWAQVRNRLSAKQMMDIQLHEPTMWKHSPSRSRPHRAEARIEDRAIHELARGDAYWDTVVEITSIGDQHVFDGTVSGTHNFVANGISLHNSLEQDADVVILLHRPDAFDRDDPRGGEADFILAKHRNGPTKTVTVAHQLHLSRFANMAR

[2] = NIH-3T3 fibroblast cytotoxicity, dose response, cytotoxicity control, cell-based, fluorescence, Alamar Blue, secondary assay (AID 2327); type: functional;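 further: NIH-3T3 mouse fibroblasts cultured with fluconazole at 8 µg/mL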
Caspase-6 = biological target: T2, Caspase-6 (Homo sapiens, UniProt P55212); assay: inhibition of CASP6 peptide cleavage – biochemical, VEID-R110 fluorescence, cherry-pick, dose response (AID 720632)
T2 sequence (P55212 whole entry): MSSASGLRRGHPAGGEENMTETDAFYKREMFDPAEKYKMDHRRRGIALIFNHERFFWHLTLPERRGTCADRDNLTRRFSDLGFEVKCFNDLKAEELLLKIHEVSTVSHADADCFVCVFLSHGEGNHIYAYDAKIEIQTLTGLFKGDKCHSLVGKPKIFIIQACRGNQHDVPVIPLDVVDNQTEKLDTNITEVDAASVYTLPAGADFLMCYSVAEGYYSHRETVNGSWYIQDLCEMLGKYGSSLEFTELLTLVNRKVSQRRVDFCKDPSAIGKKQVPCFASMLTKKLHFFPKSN

Protein RecA = biological target: T3, Protein RecA (Mycobacterium tuberculosis, UniProt P9WHJ3); assay: Fluorescence Cell-Free Homogeneous Dose Retest to Identify Inhibitors of RecA-Intein Splicing Activity. [Related pubchem assays (depositor defined):AID2097, AID2223, AID489010, AID492950]; type: functional
T3 sequence (P9WHJ3 whole entry): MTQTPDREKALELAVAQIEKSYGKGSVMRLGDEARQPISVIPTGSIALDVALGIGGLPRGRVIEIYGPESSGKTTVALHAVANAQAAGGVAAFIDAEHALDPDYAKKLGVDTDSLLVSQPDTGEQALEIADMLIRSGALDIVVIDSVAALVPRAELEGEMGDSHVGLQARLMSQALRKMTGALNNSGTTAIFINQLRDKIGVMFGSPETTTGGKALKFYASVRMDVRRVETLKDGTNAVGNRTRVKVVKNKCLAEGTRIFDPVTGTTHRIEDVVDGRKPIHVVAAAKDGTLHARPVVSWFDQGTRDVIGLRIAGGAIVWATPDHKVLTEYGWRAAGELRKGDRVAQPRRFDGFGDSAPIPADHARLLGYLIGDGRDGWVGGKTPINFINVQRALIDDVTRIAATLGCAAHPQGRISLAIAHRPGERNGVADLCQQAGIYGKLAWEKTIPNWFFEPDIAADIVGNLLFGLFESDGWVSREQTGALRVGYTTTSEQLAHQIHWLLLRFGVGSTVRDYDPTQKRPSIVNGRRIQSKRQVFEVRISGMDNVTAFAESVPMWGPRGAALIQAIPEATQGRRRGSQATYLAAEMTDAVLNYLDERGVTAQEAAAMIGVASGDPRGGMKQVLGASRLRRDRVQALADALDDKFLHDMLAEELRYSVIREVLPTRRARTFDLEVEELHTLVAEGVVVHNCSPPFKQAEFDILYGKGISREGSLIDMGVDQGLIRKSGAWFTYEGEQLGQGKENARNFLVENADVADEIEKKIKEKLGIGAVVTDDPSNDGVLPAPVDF

[3] = fluconazole-exposed Candida albicans growth modulators – fluorescence, retest, confirmation (AID 2467); type: functional, cell-based
Aminopeptidase N = biological target: T4, Aminopeptidase N (Plasmodium falciparum FcB1/Columbia, UniProt O96935); assay: malaria alanyl aminopeptidase activity blockers – biochemical, fluorogenic H-Leu-NHMec substrate, 1536-well (AID 1445); parameters: species or system Plasmodium falciparum 3D7, 3D7
T4 sequence (O96935 whole entry): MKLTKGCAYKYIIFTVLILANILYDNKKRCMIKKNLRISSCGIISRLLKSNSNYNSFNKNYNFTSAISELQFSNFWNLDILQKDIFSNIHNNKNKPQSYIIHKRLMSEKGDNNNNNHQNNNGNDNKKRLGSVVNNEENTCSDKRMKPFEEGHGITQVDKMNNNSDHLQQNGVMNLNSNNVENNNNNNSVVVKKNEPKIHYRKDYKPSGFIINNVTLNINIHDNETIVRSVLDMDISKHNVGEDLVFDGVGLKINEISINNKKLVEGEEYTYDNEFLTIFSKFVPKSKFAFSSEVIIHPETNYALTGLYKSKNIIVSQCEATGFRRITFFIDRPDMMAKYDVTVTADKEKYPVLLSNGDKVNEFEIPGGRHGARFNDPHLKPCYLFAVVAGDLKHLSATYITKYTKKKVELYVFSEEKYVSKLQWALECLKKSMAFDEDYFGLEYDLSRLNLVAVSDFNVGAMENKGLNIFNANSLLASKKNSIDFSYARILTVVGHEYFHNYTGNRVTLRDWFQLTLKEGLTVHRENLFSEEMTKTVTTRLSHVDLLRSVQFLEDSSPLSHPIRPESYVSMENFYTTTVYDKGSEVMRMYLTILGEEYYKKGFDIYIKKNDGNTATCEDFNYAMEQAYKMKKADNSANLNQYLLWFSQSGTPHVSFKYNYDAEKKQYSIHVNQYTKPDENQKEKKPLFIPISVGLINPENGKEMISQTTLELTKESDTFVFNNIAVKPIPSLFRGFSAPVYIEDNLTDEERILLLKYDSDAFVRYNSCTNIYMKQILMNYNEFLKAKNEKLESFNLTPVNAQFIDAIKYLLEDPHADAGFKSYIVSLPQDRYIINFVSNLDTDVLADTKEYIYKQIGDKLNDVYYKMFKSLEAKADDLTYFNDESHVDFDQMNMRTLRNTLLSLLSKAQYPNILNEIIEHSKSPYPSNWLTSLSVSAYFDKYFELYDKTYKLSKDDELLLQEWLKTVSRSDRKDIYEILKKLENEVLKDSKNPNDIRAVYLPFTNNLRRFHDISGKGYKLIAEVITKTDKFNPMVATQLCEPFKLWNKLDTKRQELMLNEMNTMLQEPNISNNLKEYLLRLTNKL

[4] = biological target: E3 ubiquitin-protein ligase Mdm2 (Homo sapiens, UniProt Q00987); assay: MDM2-luc reporter signal enhancers, multi-concentration potency testing, MDM2 ubiquitin-protein ligase inhibitor program, whole-cell format, luminescence detection, 384-well microplate (AID 1394); type: functional;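 further: MDM2 E3 inhibitors raise luminescence so EC50 is for signal enhancement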
[5] = Luminescence Cell-Based Dose Response to Identify Activators of 5'UTR Stem-Loop Driven Prion Protein mRNA Translation in H4-C Neuroglioblastoma Cells. [Related pubchem assays: 1829 (Project Summary), 1814 (Primary HTS)]; type: functional
[6] = Luminescence Cell-Based Dose Confirmation to Identify Activators of 5'UTR Stem-Loop Driven Alpha-Synuclein mRNA Translation in H4 Neuroglioblastoma Cells. [Related pubchem assays: 1829 (Project Summary), 1814 (Primary HTS)]; type: functional
[7] = Luminescence Cell-Based Dose Response HTS to Identify Activators of Luciferase Translation or Activity in H4 […] Cells. [Related pubchem assays: 1829 (Project Summary), 1814 (Primary HTS)]; type: functional
[8] = Luminescence Cell-Based Dose Response to Identify Activators of Luciferase Translation or Activity in H4-C Neuroglioblastoma Cells. [Related pubchem assays: 1829 (Project Summary), 1814 (Primary HTS)]; type: functional
H4 = assay: Luminescence Cell-Based Dose Response HTS to Identify Activators of 5'UTR Stem-Loop Driven Prion Protein mRNA Translation in H4 Neuroglioblastoma Cells. [Related pubchem assays: 1829 (Project Summary), 1814 (Primary HTS)]; type: functional; details: Homo sapiens
[9] = viability loss in THP-1 monocytes – THP-1 cells, cytotoxicity control for Vif-APOBEC3G degradation inhibitor project, dose response (AID 1117359); type: functional; details: THP-1
[10] = Dd2 malaria parasite growth inhibition potency – SYBR Green, dry powder samples, dose response (AID 1159566); type: functional, cell-based;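 further: potency for growth inhibition with lower SYBR green DNA signal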
[11] = growth inhibition of PfATP4-mutant resistant parasites – NITD609-resistant line, SYBR Green, dry powder, dose response (AID 1159571); type: functional, cell-based;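 further: parasites synchronized at ring stage by sorbitol before testing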
[12] = growth inhibition of yeast DHODH-expressing 3D7 parasites – SYBR Green, dry powder samples, dose response (AID 1159570); type: functional, cell-based;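 further: parasite growth measured after 72 hours of compound exposure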
[13] = toxicity to human HepG2 hepatoma cells – cell-based, plate reader, dry powder samples, cytotoxicity control, dose response (AID 1159569); type: functional;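 further: inhibitor potency with signal falling toward the positive control level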
[14] = P. falciparum Dd2 growth inhibitors, dose response, SYBR Green, cherry-picked samples (AID 1159567); type: functional, cell-based

Chain of E3 ubiquitin-protein ligase Mdm2 (Q00987 whole entry): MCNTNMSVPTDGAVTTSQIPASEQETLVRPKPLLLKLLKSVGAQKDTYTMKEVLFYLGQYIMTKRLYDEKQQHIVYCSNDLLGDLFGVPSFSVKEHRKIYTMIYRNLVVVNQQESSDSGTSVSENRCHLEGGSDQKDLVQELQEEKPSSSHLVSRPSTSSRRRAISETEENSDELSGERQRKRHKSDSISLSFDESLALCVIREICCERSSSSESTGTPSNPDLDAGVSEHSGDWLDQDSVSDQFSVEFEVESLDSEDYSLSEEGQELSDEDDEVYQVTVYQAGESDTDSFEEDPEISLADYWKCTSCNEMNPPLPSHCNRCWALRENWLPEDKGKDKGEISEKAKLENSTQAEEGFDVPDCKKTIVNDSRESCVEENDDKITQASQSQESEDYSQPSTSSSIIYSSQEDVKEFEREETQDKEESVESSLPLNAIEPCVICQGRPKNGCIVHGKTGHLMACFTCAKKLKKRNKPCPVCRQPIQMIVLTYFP

For `Cc1ccc(C(=O)c2coc3cc([N+](=O)[O-])c(O)c([N+](=O)[O-])c23)cc1`, the AC50 [1] was 24.4 µM (active), the EC50 [2] was > 160 µM (inactive) and the AC50 (Caspase-6) was 28.8 µM (active). For the same compound, the EC50 (Protein RecA) was 9.46 µM (active), the EC50 [3] was > 38 µM (not active) and the IC50 (Aminopeptidase N) was 32.1 µM (active).

With `COc1ccc(C)cc1C1=Nc2ccccc2C1(C)C` the EC50 [4] was 15.4 µM (not active).

For `CC(C)(C)c1ccc(C(=O)NC(=S)N2CCOCC2)cc1`, the EC50 [5] was 0.418 µM (active), the EC50 [6] was 2.81 µM (active) and the EC50 [7] was 0.61 µM (active). The EC50 [8] was > 12 µM (not active) and the EC50 (H4) was 0.111 µM (active).

In the case of `Cc1ccc(NC(=O)C(=O)c2c(-c3ccccc3)cc3ccccn23)cc1S(=O)(=O)N1CCOCC1`, the CC50 [9] is reported as > 40 µM (active).

With `Cc1nc2cc(NC(=O)CCS(=O)(=O)c3ccccc3)ccc2s1` the EC50 [5] was 0.312 µM (active), the EC50 [6] was 0.069 µM (active) and the EC50 [7] was < 0.1 µM (inconclusive). For the same compound, the EC50 [8] was 0.264 µM (active).

For `C[C@H]1CN([C@@H](C)CO)S(=O)(=O)c2ccc(C#Cc3ccncc3)cc2O[C@@H]1CN(C)S(=O)(=O)c1ccccc1`, the AC50 [10] was 4.05 µM (active), the AC50 [11] was 3.53 µM (active) and the AC50 [12] was 3 µM (active). For the same compound, the AC50 [13] was > 100 µM (inactive).

For `O=C(N/N=C\c1ccc(Cl)s1)c1cccs1`, the EC50 [4] was 6.96 µM (not active).

With `COc1ccc2c3c(n(C)c2c1)[C@H](CO)N(C(=O)Nc1ccc(F)cc1)CC31CCN(S(=O)(=O)c2cccc(F)c2)CC1` the AC50 [10] was 0.951 µM (active), the AC50 [11] was 1.56 µM (active) and the AC50 [12] was 1.63 µM (active). For the same compound, the AC50 [14] was 1.19 µM (active) and the AC50 [13] was > 100 µM (inactive).
